Measurements taken from patent US11802120B2, “Fused cyclic urea derivatives as CRHR2 antagonist” (RaQualia Pharma Inc., priority 2018, dated 2023).

Target: T1, human CRHR2-alpha (Homo sapiens, UniProt Q13324)
T1 sequence (Q13324 1-411): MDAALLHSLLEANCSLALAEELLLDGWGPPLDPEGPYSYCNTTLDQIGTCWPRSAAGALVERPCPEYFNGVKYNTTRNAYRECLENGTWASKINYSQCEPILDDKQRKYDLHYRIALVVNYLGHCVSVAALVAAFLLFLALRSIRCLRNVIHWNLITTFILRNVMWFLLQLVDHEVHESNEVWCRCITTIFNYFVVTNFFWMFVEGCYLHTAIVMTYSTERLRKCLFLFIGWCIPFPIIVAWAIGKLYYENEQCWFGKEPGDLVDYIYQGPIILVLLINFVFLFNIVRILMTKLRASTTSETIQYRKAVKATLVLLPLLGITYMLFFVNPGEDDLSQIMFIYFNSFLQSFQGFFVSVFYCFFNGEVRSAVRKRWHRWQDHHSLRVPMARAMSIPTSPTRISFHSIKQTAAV
Assay: cAMP functional assay for human CRHR2 (LANCE Ultra cAMP, TR-FRET)
Type: cell-based
Conditions: CHO-K1 cells expressing human CRHR2-alpha, agonist human urocortin2 at EC80, cAMP; read-out: IC50 against CRHR2
Procedure, shortened: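 CHO-K1 stable lines; 4,000 cells/well; compound 30 min, 25° C; EC80 agonist (human urocortin2 → CRHR2, CRF → CRHR1) 30 min, 25° C; buffer HBSS/0.1% BSA/0.5 mM IBMX/5 mM Hepes pH 7.4; Eu-cAMP tracer + ULight antibody 60 min; TR-FRET read; IC50 from % inhibition curves.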

Compound | IC50 [nM]
Cc1ncc(Cl)cc1C(=O)N[C@H]1CC[C@H](Cn2c(=O)n(-c3cnc4cc[nH]c4c3)c3ccccc32)CC1 [Example 158, 5-chloro-2-methyl-N-((1r,4r)-4-((2-oxo-3-(1H-pyrrolo[3,2-b]pyridin-6-yl)-2,3-dihydro-1H-benzo[d]imidazol-1-yl)methyl)cyclohexyl)nicotinamide] | < 300
Cc1ncc(Cl)cc1C(=O)N[C@H]1CC[C@H](Cn2c(=O)n(-c3ccccc3F)c3ccccc32)CC1 [Example 33, 5-chloro-N-((1r,4r)-4-((3-(2-fluorophenyl)-2-oxo-2,3-dihydro-1H-benzo[d]imidazol-1-yl)methyl)cyclohexyl)-2-methylnicotinamide] | < 300
Cc1ncc(Cl)cc1C(=O)N[C@H]1CC[C@H](Cn2c(=O)n(-c3ccc4ncccc4c3)c3cccnc32)CC1 [Example 358, 5-chloro-2-methyl-N-((1r,4r)-4-((2-oxo-1-(quinolin-6-yl)-1H-imidazo[4,5-b]pyridin-3(2H)-yl)methyl)cyclohexyl) nicotinamide] | < 300
COc1ccc(-n2c(=O)n(C[C@H]3CC[C@H](NC(=O)c4cc(Cl)cnc4C)CC3)c3cccnc32)cc1 [Example 190, 5-chloro-N-((1r,4r)-4-((3-(4-methoxyphenyl)-2-oxo-2,3-dihydro-1H-imidazo [4,5-b]pyridin-1-yl)methyl)cyclohexyl)-2-methylnico-tinamide] | < 300
CC(C)(O)COc1ccc(-n2c(=O)n(C[C@H]3CC[C@H](NC(=O)c4cc(Cl)cnc4C(F)F)CC3)c3ccccc32)cn1 [Example 429, 5-chloro-2-(difluoromethyl)-N-((1r,4r)-4-((3-(6-(2-hydroxy-2-methylpropoxy)pyridin-3-yl)-2-oxo-2,3-dihydro-1H-benzo[d]imidazol-1-yl)methyl)cyclohexyl) nicotinamide] | < 300
Cc1ncc(Cl)cc1C(=O)N[C@H]1CC[C@H](Cn2c(=O)n(C3CCN(c4cccnc4)CC3)c3ccccc32)CC1 [Example 513, 5-chloro-2-methyl-N-((1r,4r)-4-((2-oxo-3-(1-(pyridin-3-yl)piperidin-4-yl)-2,3-dihydro-1H-benzo [d]imidazol-1-yl)methyl)cyclohexyl)nicotinamide] | < 300
O=C(N[C@H]1CC[C@H](Cn2c(=O)n(-c3ccn4cncc4c3)c3ccccc32)CC1)c1cc(Cl)cnc1C(F)F [Example 415, 5-chloro-2-(difluoromethyl)-N-((1r,4r)-4-((3-(imidazo[1,5-a]pyridin-7-yl)-2-oxo-2,3-dihydro-1H-benzo[d]imidazol-1-yl)methyl)cyclohexyl)nicotinamide] | < 300
Cc1ncc(Cl)cc1C(=O)N[C@H]1CC[C@H](Cn2c(=O)n(-c3ccc4[nH]nc(-c5ccccc5)c4c3)c3ccccc32)CC1 [Example 348, 5-chloro-2-methyl-N-((1r,4r)-4-((2-oxo-3-(3-phenyl-1H-indazol-5-yl)-2,3-dihydro-1H-benzo[d]imidazol-1-yl)methyl)cyclohexyl)nicotinamide] | < 300
Cc1ncc(Cl)cc1C(=O)N[C@H]1CC[C@H](Cn2c(=O)n(-c3ccc4nc(C)n(C)c4c3)c3ccccc32)CC1 [Example 209, 5-chloro-N-((1r,4r)-4-((2′,3′-dimethyl-2-oxo-3′H-[1,5′-bibenzo[d]imidazol]-3(2H)-yl)methyl)cyclohexyl)-2-methylnicotinamide] | < 300
O=C(N[C@H]1CC[C@H](Cn2c(=O)n(-c3ccc(OCCO)nc3)c3ccccc32)CC1)c1cc(Cl)cnc1C(F)F [Example 365, 5-chloro-2-(difluoromethyl)-N-((1r,4r)-4-((3-(6-(2-hydroxyethoxy)pyridin-3-yl)-2-oxo-2,3-dihydro-1H-benzo[d]imidazol-1-yl)methyl)cyclohexyl)nicotinamide] | < 300
CCn1c(=O)oc2cc(-n3c(=O)n(C[C@H]4CC[C@H](NC(=O)c5cc(Cl)cnc5C)CC4)c4ccccc43)cnc21 [Example 277, 5-chloro-N-((1r,4r)-4-((3-(3-ethyl-2-oxo-2,3-dihydro-oxazolo[4,5-b]pyridin-6-yl)-2-oxo-2,3-dihydro-1H-benzo [d]imidazol-1-yl)methyl)cyclohexyl)-2-methylnico-tinamide] | < 300

The remaining lines, values ahead:

IC50 [nM] | Compound
< 300 | Cc1ncc(Cl)cc1C(=O)N[C@H]1CC[C@H](Cn2c(=O)n(-c3cnc(OCCO)c(F)c3)c3ccccc32)CC1 [Example 553, 5-chloro-N-((1r,4r)-4-((3-(5-fluoro-6-(2-hydroxyethoxy)pyridin-3-yl)-2-oxo-2,3-dihydro-1H-benzo[d]imidazol-1-yl)methyl)cyclohexyl)-2-methylnicotinamide]
< 300 | CNc1ccc(-n2c(=O)n(C[C@H]3CC[C@H](NC(=O)c4cc(Cl)cnc4C(F)(F)F)CC3)c3ccccc32)nc1 [Example 692, 5-chloro-N-((1r,4r)-4-((3-(5-(methylamino)pyridin-2-yl)-2-oxo-2,3-dihydro-1H-benzo[d]imidazol-1-yl)methyl)cyclohexyl)-2-(trifluoromethyl)nicotinamide]
< 300 | C[C@H](O)C(=O)Nc1ccc(-n2c(=O)n(C[C@H]3CC[C@H](NC(=O)c4cc(Cl)cnc4C(F)F)CC3)c3ccccc32)cn1 [Example 671, 5-chloro-2-(difluoromethyl)-N-((1S,4r)-4-((3-(6-((S)-2-hydroxypropanamido)pyridin-3-yl)-2-oxo-2,3-dihydro-1H-benzo[d]imidazol-1-yl)methyl)cyclohexyl)nicotinamide]
< 300 | O=C(N[C@H]1CC[C@H](Cn2c(=O)n(-c3ccccc3Cl)c3cccnc32)CC1)c1cc(Cl)cnc1C(F)F [Example 630, 5-chloro-N-((1r,4r)-4-((1-(2-chlorophenyl)-2-oxo-1H-imidazo[4,5-b]pyridin-3(2H)-yl)methyl)cyclohexyl)-2-(difluoromethyl)nicotinamide]
< 300 | O=C(N[C@H]1CC[C@H](Cn2c(=O)n(-c3ccc(-n4nccn4)cc3)c3ccccc32)CC1)c1cc(Cl)cnc1C(F)F [Example 684, N-((1r,4r)-4-((3-(4-(2H-1,2,3-triazol-2-yl)phenyl)-2-oxo-2,3-dihydro-1H-benzo[d]imidazol-1-yl)methyl)cyclo-hexyl)-5-chloro-2-(difluoro-methyl)nicotinamide]
< 300 | COc1ccc(F)c(-n2c(=O)n(C[C@H]3CC[C@H](NC(=O)c4cc(Cl)cnc4C(F)F)CC3)c3cnccc32)c1 [Example 726, 5-chloro-2-(difluoromethyl)-N-((1r,4r)-4-((1-(2-fluoro-5-methoxyphenyl)-2-oxo-1H-imidazo[4,5-c]pyridin-3(2H)-yl)methyl)cyclohexyl) nicotinamide]
< 300 | Cc1ncc(Cl)cc1C(=O)N[C@H]1CC[C@H](Cn2c(=O)n(-c3ccc(N(C)C)cn3)c3ccccc32)CC1 [Example 647, 5-chloro-N-((1r,4r)-4-((3-(5-(dimethylamino)pyridin-2-yl)-2-oxo-2,3-dihydro-1H-benzo [d]imidazol-1-yl)methyl)cyclo-hexyl)-2-methylnicotinamide]
< 300 | Cn1ccc2cc(-n3c(=O)n(C[C@H]4CC[C@H](NC(=O)c5cc(Cl)cnc5C(F)F)CC4)c4cccnc43)cnc21 [Example 730, 5-chloro-2-(difluoromethyl)-N-((1r,4r)-4-((3-(1-methyl-1H-pyrrolo[2,3-b]pyridin-5-yl)-2-oxo-2,3-dihydro-1H-imidazo[4,5-b]pyridin-1-yl)methyl)cyclohexyl)nicotinamide]
